{"source": "patent US20170094976A1", "about": "“TREATMENT OF WATER” (BWA WATER ADDITIVES UK LIMITED, priority 2015, published 2017)", "key": {"Enterobacter aerogenes": {"tested_on": "Enterobacter aerogenes", "assay": "Log10 reduction of viable facultative anaerobic bacteria in high-TDS buffer after biocide contact", "type": "cell-based", "details": "TDS 30,000 mg l^-1, pH 8 phosphate buffer, room temperature, versus control, ppm active per example, 8 = complete kill", "experimental": "(§1) Aqueous systems inoculated with anaerobe and facultative anaerobe culture and having a total dissolved solids (TDS) concentration of 30,000 mg l^−1 were prepared and treated with treatment agents comprising: (a) a phosphonium compound and (b) a quaternary ammonium salt. The phosphonium compound (a) used was tri n-butyl n-tetradecyl phosphonium chloride (TTPC). The quaternary ammonium salt (b) used was 1-(3-chloroallyl)-3,5,7-triaza-1-azoniaadamantane chloride (CTAC).\n(§2) A suspension of Desulfovibrio vulgaris plus Enterobacter aerogenes bacteria containing from 1×10^5 to 1×10^6 cells/mL was prepared in sterile pH 8 phosphate buffer containing sodium chloride to give the desired total dissolved solids (TDS) concentration. Aliquots of this suspension were dosed with the indicated concentrations of the compounds (a) and (b) with the concentrations being measured as ppm active by weight. The mixtures were allowed to stand at room temperature. At the designated contact times, each mixture was sampled to determine the total number of viable cells of both Desulfovibrio vulgaris and Enterobacter aerogenes by serial 10-fold dilution into API RP 38 media vials and anaerobic acid producing media vials, respectively. The vials were incubated at 37° C. for 72 hours. Results were recorded as log10 reduction in the viable count versus the control.\n(§3) The efficacy of the treatment agents was evaluated by measuring the Log10 Reduction of the anaerobic bacterium Desulfovibrio vulgaris and the facultative anaerobic bacterium Enterobacter aerogenes after contact times of 1 hour, 4 hours, 24 hours and 48 hours as detailed in Table 1. For TTPC the stated ppm value relates to the amount of TTPC added (active). For the CTAC the stated ppm relates to the amount of CTAC added (active)."}, "Desulfovibrio vulgaris": {"tested_on": "Desulfovibrio vulgaris", "assay": "Log10 reduction of viable anaerobic bacteria in high-TDS buffer after biocide contact", "type": "cell-based", "details": "TDS 30,000 mg l^-1, pH 8 phosphate buffer, room temperature, versus control, ppm active per example, 5 = complete kill", "experimental": "as §1, §2, §3"}}}
{"smiles": "CCCCCCCCCCCCCC[P+](CCCC)(CCCC)CCCC.[Cl-]", "note": "[Example 9, tri n-butyl n-tetradecyl phosphonium chloride]", "values": [{"measurement": "Log10 Reduction Facultative Anaerobes", "setting": "Enterobacter aerogenes; contact time 4 hours", "result": 2}, {"measurement": "Log10 Reduction Anaerobes", "setting": "Desulfovibrio vulgaris; contact time 4 hours", "result": 5}]}
{"smiles": "CCCCCCCCCCCCCC[P+](CCCC)(CCCC)CCCC.[Cl-]", "note": "[Example 1, tri n-butyl n-tetradecyl phosphonium chloride]", "values": [{"measurement": "Log10 Reduction Facultative Anaerobes", "setting": "Enterobacter aerogenes; contact time 1 hour", "result": 1}, {"measurement": "Log10 Reduction Anaerobes", "setting": "Desulfovibrio vulgaris; contact time 1 hour", "result": 2}]}
{"smiles": "ClC=CC[N+]12CN3CN(CN(C3)C1)C2.[Cl-]", "note": "[Example 28, 1-(3-chloroallyl)-3,5,7-triaza-1-azoniaadamantane chloride]", "values": [{"measurement": "Log10 Reduction Facultative Anaerobes", "setting": "Enterobacter aerogenes; contact time 48 hours", "result": 3}, {"measurement": "Log10 Reduction Anaerobes", "setting": "Desulfovibrio vulgaris; contact time 48 hours", "result": 5}]}
{"smiles": "CCCCCCCCCCCCCC[P+](CCCC)(CCCC)CCCC.[Cl-]", "note": "[Example 25, tri n-butyl n-tetradecyl phosphonium chloride]", "values": [{"measurement": "Log10 Reduction Facultative Anaerobes", "setting": "Enterobacter aerogenes; contact time 48 hours", "result": 6}, {"measurement": "Log10 Reduction Anaerobes", "setting": "Desulfovibrio vulgaris; contact time 48 hours", "result": 5}]}
{"smiles": "ClC=CC[N+]12CN3CN(CN(C3)C1)C2.[Cl-]", "note": "[Example 27, 1-(3-chloroallyl)-3,5,7-triaza-1-azoniaadamantane chloride]", "values": [{"measurement": "Log10 Reduction Facultative Anaerobes", "setting": "Enterobacter aerogenes; contact time 48 hours", "result": 2}, {"measurement": "Log10 Reduction Anaerobes", "setting": "Desulfovibrio vulgaris; contact time 48 hours", "result": 5}]}
{"smiles": "CCCCCCCCCCCCCC[P+](CCCC)(CCCC)CCCC.[Cl-]", "note": "[Example 17, tri n-butyl n-tetradecyl phosphonium chloride]", "values": [{"measurement": "Log10 Reduction Facultative Anaerobes", "setting": "Enterobacter aerogenes; contact time 24 hours", "result": 4}, {"measurement": "Log10 Reduction Anaerobes", "setting": "Desulfovibrio vulgaris; contact time 24 hours", "result": 5}]}
{"smiles": "ClC=CC[N+]12CN3CN(CN(C3)C1)C2.[Cl-]", "note": "[Example 12, 1-(3-chloroallyl)-3,5,7-triaza-1-azoniaadamantane chloride]", "values": [{"measurement": "Log10 Reduction Facultative Anaerobes", "setting": "Enterobacter aerogenes; contact time 4 hours", "result": 1}, {"measurement": "Log10 Reduction Anaerobes", "setting": "Desulfovibrio vulgaris; contact time 4 hours", "result": 0}]}
{"smiles": "CCCCCCCCCCCCCC[P+](CCCC)(CCCC)CCCC.[Cl-]", "note": "[Example 2, tri n-butyl n-tetradecyl phosphonium chloride]", "values": [{"measurement": "Log10 Reduction Facultative Anaerobes", "setting": "Enterobacter aerogenes; contact time 1 hour", "result": 3}, {"measurement": "Log10 Reduction Anaerobes", "setting": "Desulfovibrio vulgaris; contact time 1 hour", "result": 3}]}
{"smiles": "CCCCCCCCCCCCCC[P+](CCCC)(CCCC)CCCC.[Cl-]", "note": "[Example 18, tri n-butyl n-tetradecyl phosphonium chloride]", "values": [{"measurement": "Log10 Reduction Facultative Anaerobes", "setting": "Enterobacter aerogenes; contact time 24 hours", "result": 7}, {"measurement": "Log10 Reduction Anaerobes", "setting": "Desulfovibrio vulgaris; contact time 24 hours", "result": 5}]}
{"smiles": "ClC=CC[N+]12CN3CN(CN(C3)C1)C2.[Cl-]", "note": "[Example 19, 1-(3-chloroallyl)-3,5,7-triaza-1-azoniaadamantane chloride]", "values": [{"measurement": "Log10 Reduction Facultative Anaerobes", "setting": "Enterobacter aerogenes; contact time 24 hours", "result": 0}, {"measurement": "Log10 Reduction Anaerobes", "setting": "Desulfovibrio vulgaris; contact time 24 hours", "result": 1}]}
{"smiles": "ClC=CC[N+]12CN3CN(CN(C3)C1)C2.[Cl-]", "note": "[Example 4, 1-(3-chloroallyl)-3,5,7-triaza-1-azoniaadamantane chloride]", "values": [{"measurement": "Log10 Reduction Facultative Anaerobes", "setting": "Enterobacter aerogenes; contact time 1 hour", "result": 0}, {"measurement": "Log10 Reduction Anaerobes", "setting": "Desulfovibrio vulgaris; contact time 1 hour", "result": 0}]}
{"smiles": "ClC=CC[N+]12CN3CN(CN(C3)C1)C2.[Cl-]", "note": "[Example 11, 1-(3-chloroallyl)-3,5,7-triaza-1-azoniaadamantane chloride]", "values": [{"measurement": "Log10 Reduction Facultative Anaerobes", "setting": "Enterobacter aerogenes; contact time 4 hours", "result": 0}, {"measurement": "Log10 Reduction Anaerobes", "setting": "Desulfovibrio vulgaris; contact time 4 hours", "result": 0}]}
{"smiles": "CCCCCCCCCCCCCC[P+](CCCC)(CCCC)CCCC.[Cl-]", "note": "[Example 10, tri n-butyl n-tetradecyl phosphonium chloride]", "values": [{"measurement": "Log10 Reduction Facultative Anaerobes", "setting": "Enterobacter aerogenes; contact time 4 hours", "result": 8}, {"measurement": "Log10 Reduction Anaerobes", "setting": "Desulfovibrio vulgaris; contact time 4 hours", "result": 5}]}
{"smiles": "ClC=CC[N+]12CN3CN(CN(C3)C1)C2.[Cl-]", "note": "[Example 20, 1-(3-chloroallyl)-3,5,7-triaza-1-azoniaadamantane chloride]", "values": [{"measurement": "Log10 Reduction Facultative Anaerobes", "setting": "Enterobacter aerogenes; contact time 24 hours", "result": 2}, {"measurement": "Log10 Reduction Anaerobes", "setting": "Desulfovibrio vulgaris; contact time 24 hours", "result": 3}]}
